In patent US12433857B2, “Conjugate and cancer therapeutic agent” (Tokyo Institute of Technology, priority 2019, dated 2025):
Entries after “also recorded” stand apart in the source; their conditions may differ. Where a name gives a salt, the structure may show the parent alone.

Columns and labels:
[1] = Pharmacokinetics (blood retention, tumor accumulation) in subcutaneous CT26 tumor mouse model; format: in vivo; settings: intravenous
Protocol: To evaluate the blood retention and the tumor accumulation of DFO and PEG-P[Asp(DFO)m]n), a DFO/Ga (III) complex and a PEG-P[Asp(DFO)m]n/Ga (III) complex were intravenously injected into the subcutaneous CT26 tumor mouse model, and the Ga contents in the blood and the tumor after a predetermined period of time were measured by ICP-MS.
300 μL of a 26.8 mM GaCl3/D-PBS solution was added to 2.70 mL of a 16.9 mM DFO/D-PBS solution, and the resultant solution was stirred overnight. The pH was adjusted to 7.4 with NaOH, and then the solution was filtered through a filter.
300 μL of 26.8 mM GaCl3/D-PBS solution was added to 2.70 mL of a 1.71 mM PEG-P[Asp(DFO)10]35/D-PBS solution (DFO concentration=16.9 mM), and the resultant solution was stirred overnight. The reaction solution was placed in an ultrafiltration membrane (MWCO=10 kD) and subjected to ultrafiltration five times. 3 mL of D-PBS was added to the purified solution, and the resultant solution was filtered through a filter. […]
100 μl of the prepared solution described above was intravenously administered (DFO: […]) to the tail vein of a model mouse of which the tumor size reached about 200 mm^3. […] After filling up to 10 mL with pure water and filtration with a hydrophobic filter, the gallium contents of the blood and the various organs were measured by ICP-MS. […]

DLD-1 cells [2] = experiment: Free iron in the cytoplasm detected with FerroOrange; format: cell-based, human; settings: 2.00 mM DFO-concentration solution diluted 10-fold, 24 hours
Protocol: To investigate whether DFO and PEG-P[Asp(DFO)m]n would decrease free iron in the cytoplasm, the free iron in the cytoplasm of cells treated with DFO and PEG-P[Asp(DFO)m]n was detected with FerroOrange.
[Preparation of DFO Solution and PEG-P[Asp(DFO)10]35 Solution] • DFO/D-PBS solution: 2.00 mM • PEG-P[Asp(DFO)10]35/D-PBS solution: […] (DFO concentration=2.00 mM) [Observation with Confocal Microscope]
DLD-1 cells were seeded on 35 mm^2 glass base dishes at 3.0×10^5 cells/well and pre-cultured at 37° C. under 5% CO2 for 24 hours. After removing the solution, 2 mL of the prepared solution described above, diluted 10-fold with RPMI, was added to each dish followed by incubating for 24 hours. After washing with 2 mL of serum-free RPMI, 1 mL of serum-free RPMI containing […] FerroOrange was added thereto followed by incubating in a dark place for 30 min. Thereafter, the fluorescence of FerroOrange was observed by CLSM.
DLD-1 cells were seeded on a 96-well plate at 1.0×10^4 cells/well and pre-cultured at 37° C. under 5% CO2 for 24 hours. After removing the solution, 100 μL of the prepared solution described above, diluted 10-fold with RPMI, was added to each well followed by incubating for 24 hours. […] Then, the fluorescence intensity of FerroOrange was measured with a plate reader. […] The statistical significance was evaluated by Tukey's multiple comparison test (****p<0.0001).

DLD-1 cells [3] = experiment: Cell cycle analysis by propidium iodide staining; format: cell-based, human; settings: 72 hours
Protocol: The cell cycle was analyzed by propidium iodide (PI) staining to investigate the mechanism of cancer cell proliferation suppression of DFO and PEG-P[Asp(DFO)m]n.
[Preparation of DFO Solution and PEG-P[Asp(DFO)10]35 Solution] • DFO/D-PBS solution: 45.0 μM • PEG-P[Asp(DFO)10]35/D-PBS solution: 61.0 μM (DFO concentration=600 μM)
DLD-1 cells were seeded on a 6-well plate at 2.0×10^5 cells/well and pre-cultured at 37° C. under 5% CO2 for 24 hours. The prepared solution described above was diluted 10-fold with RPMI, and then 3 mL was added to each well followed by incubating for 72 hours. After washing with 3 mL of D-PBS, 700 μL of a Trypsin-EDTA solution was added thereto followed by incubating for 10 min. After confirming that the cells had been peeled off under an optical microscope, 700 μL of D-PBS containing 10% FBS was added thereto, and the cells were sufficiently suspended. The suspension was centrifuged at 1,200 rpm for 3 min to remove the supernatant. 500 μL of D-PBS was added to the cell pellet, which was subsequently suspended. The suspension was dropwise added to 4.5 mL of 70% ethanol and fixed in a −20° C. freezer overnight. […] Finally, the suspension was filtered through a cell strainer, and the fluorescence of propidium iodide was measured using FCM. The measured data were analyzed by ModFit LT. […]

DLD-1 cells [4] = experiment: Apoptosis induction by PI staining and Annexin V staining; format: cell-based, human; settings: 1.00 mM DFO-concentration solution diluted 10-fold, 24 hours
Protocol: In order to investigate whether DFO and PEG-P[Asp(DFO)m]n would induce apoptosis, apoptotic cells were detected by PI staining and Annexin V staining.
[Preparation of DFO Solution and PEG-P[Asp(DFO)10]35 Solution] • DFO/D-PBS solution: 1.00 mM • PEG-P[Asp(DFO)10]35/D-PBS solution: 100 μM (DFO concentration=1.00 mM)
DLD-1 cells were seeded on a 6-well plate at 1.0×10^5 cells/well and pre-cultured at 37° C. under 5% CO2 for 24 hours. After removing the solution, 3 mL of the prepared solution described above, diluted 10-fold with RPMI, was added to each well followed by incubating for 24 hours. After washing with 3 mL of D-PBS, 700 μL of a Trypsin-EDTA solution was added thereto followed by incubating for 10 min. After confirming that the cells had peeled off under an optical microscope, 700 μL of RPMI was added and suspended sufficiently. The suspension was centrifuged at 1,200 rpm for 3 min to remove the supernatant. 500 μL of RPMI was added, the number of cells was measured, and the cells in each sample were made to the same number. The suspension was centrifuged at 1,200 rpm for 3 min to remove the supernatant. […] After adding 400 μL of the binding buffer, the suspension was filtered through a cell strainer, and the fluorescence of PI and Annexin V was measured using FCM. […] The statistical significance was evaluated by Tukey's multiple comparison test (**** p<0.0001).

DLD-1 cells [5] = experiment: Cell proliferation suppressive action by CCK-8 assay; format: cell-based, human; settings: 72 hours, CCK-8, absorbance at 450 nm
Protocol: The cancer cell proliferation suppressive action of PEG-P[Asp(DFO)m]n was evaluated by CCK-8 assay.
[Preparation of DFO Solution, PEG-P[Asp(DFO)10]35 Solution, and PEG-P[Asp(DFO)26]78 Solution] • DFO/D-PBS solution: 3.00 mM • PEG-P[Asp(DFO)10]35/D-PBS solution: 0.305 mM (DFO concentration=3.00 mM) • PEG-P[Asp(DFO)26]78/D-PBS solution: 0.118 mM (DFO concentration=3.00 mM)
DLD-1 cells were seeded on a 96-well plate at 1.0×10^3 cells/well and pre-cultured at 37° C. under 5% CO2 for 24 hours. 10 μL of the prepared solution described above was added to each well followed by incubating for 72 hours. 10 μL of CCK-8 solution was added to each well, and after incubating for 2 hours, the absorbance at 450 nm was measured. The results are shown as the value of mean±S.D. (n=5), and a statistically significant difference was evaluated by the t-test (****p<0.0001).

DLD-1 cells [6] = experiment: DNA synthesis inhibition by BrdU staining; format: cell-based, human; settings: 72 hours
Protocol: To investigate the mechanism of cell cycle arrest in the S phase by DFO and PEG-P[Asp(DFO)m]n, DNA synthesis inhibition was evaluated by BrdU staining.
[Preparation of DFO Solution and PEG-P[Asp(DFO)10]35 Solution] • DFO/D-PBS solution: 450 μM • PEG-P[Asp(DFO)10]35/D-PBS solution: […] (DFO concentration=600 μM) [Observation with Confocal Microscope]
DLD-1 cells were seeded on 35 mm^2 glass base dishes at 1.0×10^5 cells/well and pre-cultured at 37° C. under 5% CO2 for 24 hours. After removing the solution, 3 mL of the prepared solution described above, diluted 10-fold with RPMI, was added to each well followed by incubating for 72 hours. Then, 330 μL of a 10 mM BrdU/D-PBS solution was added thereto followed by incubating for 1 hour. After removing the solution, 1 mL of 1.0 M HCl solution was added thereto followed by incubating for 10 min. After removing the solution, 1 mL of a 0.1 M sodium tetraborate buffer (pH 8.5) was added thereto followed by incubating for 30 min. […]
DLD-1 cells were seeded on a 6-well plate at 2.0×10^5 cells/well and pre-cultured at 37° C. under 5% CO2 for 24 hours. […] The number of cells was measured, and the cells in each sample were made to the same number. […] Finally, the suspension was filtered through a cell strainer, and the fluorescence of BrdU was measured using FCM.

[7] = Non-Patent Documents 4 to 6; cited from earlier work
[8] = test system: various cancer cell lines; settings: Non-Patent Documents 1 to 3; cited from earlier work

In the case of `CC(=O)N(O)CCCCCNC(=O)CCC(=O)N(O)CCCCCNC(=O)CCC(=O)N(O)CCCCCN` [DFO, Deferoxamine mesylate], the “blood retention (in words)” value [1] was “rapid disappearance from the blood; also recorded: disappeared from the blood at an early stage”, the “free iron in the cytoplasm (FerroOrange fluorescence)” value (DLD-1 cells [2]) was “markedly decreased free iron in the cytoplasm” and the cell cycle arrest (DLD-1 cells [3]) was “induced cell cycle arrest in the S phase”. The “proportion of apoptotic and necrotic cells” value (DLD-1 cells [4]) was “significantly increased the proportion of apoptotic and necrotic cells”, the cell proliferation suppression (DLD-1 cells [5]) was “significantly suppressed the proliferation” and the “DNA synthesis inhibition (BrdU uptake)” value (DLD-1 cells [6]) was “BrdU uptake was significantly suppressed”. The “half-life of the in-blood concentration” value [7] was no more than 20 min and the “cell proliferation suppressive effect” value [8] was “cell proliferation suppressive effect through cell cycle arrest”.
